Measured values from patent US20200231638A1, “STABILIZED ANTI-MICROBIAL PEPTIDES” (priority 2015, published 2020).
Bridge positions count the residues as written; N and C are the ends. Square brackets hold non-standard residues; d marks the D form. Peptide text beside a SMILES is read from it. S5 = C=CCCC[C@](C)(N)C(=O)O; Nle = CCCC[C@H](N)C(=O)O

Experiments:
P. aeruginosa = assay type: cell-based, Pseudomonas aeruginosa
In short: (§1)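 Broth microdilution; anion-exchange-refined MHB; overnight culture at 37° C, diluted and regrown; inoculum 5×10^5 CFU/ml final; peptides serially diluted in water; 20-24 h, 37° C; MIC = lowest concentration without visible growth.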

human red blood cells = assay type: cell-based; settings: red cells of human, 1 h, 25
In short: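 Hemolysis expressed as absorbance of released hemoglobin (570 nm) normalized between untreated and 1% Triton-X100 controls, with MHC taken as peptide concentration giving under 1% release. Peptide dilutions were exposed for 1 h at 37° C to a 1% (v/v) suspension of washed human red cells in PBS.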

B. cereus = assay type: cell-based, Bacillus cereus
In short: as §1

E. coli = assay type: cell-based, Escherichia coli
In short: as §1

S. aureus = assay type: cell-based, Staphylococcus aureus
In short: as §1

Structure (SMILES)	MIC P. aeruginosa (P. aeruginosa) [µg/mL]	MIC B. cereus (B. cereus) [µg/mL]	MIC E. coli (E. coli) [µg/mL]	MIC S. aureus (S. aureus) [µg/mL]	% Hemolysis at 25 μg/ml (human red blood cells) [%]
CCCC[C@H](NC(=O)[C@]1(C)CCCC=CCCC[C@](C)(NC(=O)[C@H](Cc2c[nH]cn2)NC(=O)[C@H](CCCCN)NC(=O)CNC(=O)[C@H](Cc2ccccc2)NC(=O)[C@H](CCCCN)NC(=O)[C@H](CCCCN)NC(=O)[C@H](C)NC(=O)[C@H](CO)NC(=O)[C@H](Cc2c[nH]cn2)NC(=O)[C@H](CC(C)C)NC(=O)[C@H](Cc2ccccc2)NC(=O)[C@H](CCCCN)NC(=O)CNC(=O)[C@@H](NC(=O)CN)[C@@H](C)CC)C(=O)N[C@@H](C(C)C)C(=O)NCC(=O)N[C@@H](CCC(=O)O)C(=O)N1)C(=O)N[C@@H](CC(N)=O)C(=O)N[C@@H](CO)C(N)=O [Mag(i + 4)15(A15H), GIGKFLHSAKKFGKHXVGEXBNS] (H-GIGKFLHSAKKFGKH[S5]VGE[S5][Nle]NS-NH2; staple 16-20)	12.5	6.2	3.1	12.5	4.7
CC[C@H](C)[C@H](NC(=O)CN)C(=O)NCC(=O)N[C@@H](CCCCN)C(=O)N[C@@H](Cc1ccccc1)C(=O)N[C@@H](CC(C)C)C(=O)N[C@@H](Cc1c[nH]cn1)C(=O)N[C@@H](CO)C(=O)N[C@@H](C)C(=O)N[C@@H](CCCCN)C(=O)N[C@@H](CCCCN)C(=O)N[C@@H](Cc1ccccc1)C(=O)NCC(=O)N[C@@H](CCCCN)C(=O)N[C@@H](C)C(=O)N[C@@H](Cc1ccccc1)C(=O)N[C@@]1(C)CCCC=CCCC[C@@](C)(C(=O)N[C@@H](CC(N)=O)C(=O)N[C@@H](CO)C(N)=O)NC(=O)[C@H]([C@@H](C)CC)NC(=O)[C@H](CCC(=O)O)NC(=O)CNC1=O [Mag(i + 4)16, GIGKFLHSAKKFGKAFXGEIXNS] (H-GIGKFLHSAKKFGKAF[S5]GEI[S5]NS-NH2; staple 17-21)	6.2	12.5	3.1	50	7.8
CCCC[C@H](NC(=O)[C@]1(C)CCCC=CCCC[C@](C)(NC(=O)[C@H](C)NC(=O)[C@H](CCCCN)NC(=O)CNC(=O)[C@H](Cc2ccccc2)NC(=O)[C@H](CCCCN)NC(=O)[C@H](CCCCN)NC(=O)[C@H](C)NC(=O)[C@H](CO)NC(=O)[C@H](Cc2c[nH]cn2)NC(=O)[C@H](CC(C)C)NC(=O)[C@H](Cc2ccccc2)NC(=O)[C@H](CCCCN)NC(=O)[C@H](CCCCN)NC(=O)[C@@H](NC(=O)CN)[C@@H](C)CC)C(=O)N[C@@H](C(C)C)C(=O)NCC(=O)N[C@@H](CCC(=O)O)C(=O)N1)C(=O)N[C@@H](CC(N)=O)C(=O)N[C@@H](CO)C(N)=O [Mag(i + 4)15(G3K), GIKKFLHSAKKFGKAXVGEXBNS] (H-GIKKFLHSAKKFGKA[S5]VGE[S5][Nle]NS-NH2; staple 16-20)	3.1	6.2	1.6	12.5	3.8
CCCC[C@H](NC(=O)[C@]1(C)CCCC=CCCC[C@](C)(NC(=O)[C@H](C)NC(=O)[C@H](CCCCN)NC(=O)CNC(=O)[C@H](Cc2ccccc2)NC(=O)[C@H](CCCCN)NC(=O)[C@H](CCCCN)NC(=O)[C@H](CCCCN)NC(=O)[C@H](CO)NC(=O)[C@]2(C)CCCC=CCCC[C@](C)(NC(=O)[C@H](CCCCN)NC(=O)CN)C(=O)N[C@@H](CCCCN)C(=O)N[C@@H](Cc3ccccc3)C(=O)N[C@@H](CC(C)C)C(=O)N2)C(=O)N[C@@H](C(C)C)C(=O)N[C@@H](Cc2c[nH]cn2)C(=O)N[C@@H](CCC(=O)O)C(=O)N1)C(=O)N[C@@H](CC(N)=O)C(=O)N[C@@H](CO)C(N)=O [Mag(i + 4)2, 15(I2K, A9K, G18H)] (H-GK[S5]KFL[S5]SKKKFGKA[S5]VHE[S5][Nle]NS-NH2; staple 3-7, 16-20)	3.1	12.5	3.1	25	2.2
CCCC[C@H](NC(=O)[C@@H](NC(=O)[C@H](CCC(=O)O)NC(=O)CNC(=O)[C@@H](NC(=O)[C@H](Cc1ccccc1)NC(=O)[C@H](C)NC(=O)[C@H](CCCCN)NC(=O)CNC(=O)[C@H](Cc1ccccc1)NC(=O)[C@H](CCCCN)NC(=O)[C@H](CCCCN)NC(=O)[C@]1(C)CCCC=CCCC[C@](C)(NC(=O)[C@H](CCCCN)NC(=O)CNC(=O)[C@@H](NC(=O)CN)[C@@H](C)CC)C(=O)N[C@@H](CC(C)C)C(=O)N[C@@H](Cc2c[nH]cn2)C(=O)N[C@@H](CO)C(=O)N1)C(C)C)[C@@H](C)CC)C(=O)N[C@@H](CC(N)=O)C(=O)N[C@@H](CO)C(N)=O [Mag(i + 4)4] (H-GIGK[S5]LHS[S5]KKFGKAFVGEI[Nle]NS-NH2; staple 5-9)	12.5	6.2	3.1	25	17.8

Second part, led by results:

MIC P. aeruginosa (P. aeruginosa) [µg/mL]	MIC B. cereus (B. cereus) [µg/mL]	MIC E. coli (E. coli) [µg/mL]	MIC S. aureus (S. aureus) [µg/mL]	Structure (SMILES)	% Hemolysis at 25 μg/ml (human red blood cells) [%]
3.1	6.2	1.6	12.5	CCCC[C@H](NC(=O)[C@]1(C)CCCC=CCCC[C@](C)(NC(=O)[C@H](C)NC(=O)[C@H](CCCCN)NC(=O)CNC(=O)[C@H](Cc2ccccc2)NC(=O)[C@H](CCCCN)NC(=O)[C@H](CCCCN)NC(=O)[C@H](C)NC(=O)[C@H](CO)NC(=O)[C@H](Cc2c[nH]cn2)NC(=O)[C@H](CC(C)C)NC(=O)[C@H](Cc2ccccc2)NC(=O)[C@H](CCCCN)NC(=O)CNC(=O)[C@@H](NC(=O)CN)[C@@H](C)CC)C(=O)N[C@@H](C(C)C)C(=O)NCC(=O)N[C@@H](CCCCN)C(=O)N1)C(=O)N[C@@H](CC(N)=O)C(=O)N[C@@H](CO)C(N)=O [Mag(i + 4)15(E19K), GIGKFLHSAKKFGKAXVGKXBNS] (H-GIGKFLHSAKKFGKA[S5]VGK[S5][Nle]NS-NH2; staple 16-20)	7.1
3.1	6.2	1.6	50	CCCC[C@H](NC(=O)[C@]1(C)CCCC=CCCC[C@](C)(NC(=O)[C@H](C)NC(=O)[C@H](CCCCN)NC(=O)CNC(=O)[C@H](Cc2ccccc2)NC(=O)[C@H](CCCCN)NC(=O)[C@H](CCCCN)NC(=O)[C@H](C)NC(=O)[C@H](CO)NC(=O)[C@H](Cc2c[nH]cn2)NC(=O)[C@H](CC(C)C)NC(=O)[C@H](Cc2ccccc2)NC(=O)[C@H](CCCCN)NC(=O)CNC(=O)[C@@H](NC(=O)CN)[C@@H](C)CC)C(=O)N[C@@H](C(C)C)C(=O)NCC(=O)N[C@@H](CCC(=O)O)C(=O)N1)C(=O)N[C@@H](CC(N)=O)C(=O)N[C@@H](CCCCN)C(N)=O [Mag(i + 4)15(S23K), GIGKFLHSAKKFGKAXVGEXBNK] (H-GIGKFLHSAKKFGKA[S5]VGE[S5][Nle]NK-NH2; staple 16-20)	5.0
>50	12.5	6.2	50	CCCC[C@H](NC(=O)[C@]1(C)CCCC=CCCC[C@](C)(NC(=O)[C@H](C)NC(=O)[C@H](CCCCN)NC(=O)CNC(=O)[C@H](Cc2ccccc2)NC(=O)[C@H](CCC(=O)O)NC(=O)[C@H](CCCCN)NC(=O)[C@H](C)NC(=O)[C@H](CO)NC(=O)[C@H](Cc2c[nH]cn2)NC(=O)[C@H](CC(C)C)NC(=O)[C@H](Cc2ccccc2)NC(=O)[C@H](CCCCN)NC(=O)CNC(=O)[C@@H](NC(=O)CN)[C@@H](C)CC)C(=O)N[C@@H](C(C)C)C(=O)NCC(=O)N[C@@H](CCC(=O)O)C(=O)N1)C(=O)N[C@@H](CC(N)=O)C(=O)N[C@@H](CO)C(N)=O [Mag(i + 4)15(K11E), GIGKFLHSAKEFGKAXVGEXBNS] (H-GIGKFLHSAKEFGKA[S5]VGE[S5][Nle]NS-NH2; staple 16-20)	2.9
12.5	12.5	3.1	25	CCCC[C@H](NC(=O)[C@]1(C)CCCC=CCCC[C@](C)(NC(=O)[C@H](C)NC(=O)[C@H](CCCCN)NC(=O)CNC(=O)[C@H](Cc2ccccc2)NC(=O)[C@H](CCCCN)NC(=O)[C@H](CCCCN)NC(=O)[C@H](C)NC(=O)[C@H](CO)NC(=O)[C@H](Cc2c[nH]cn2)NC(=O)[C@H](CC(C)C)NC(=O)[C@H](Cc2ccccc2)NC(=O)[C@H](CCCCN)NC(=O)CNC(=O)[C@@H](NC(=O)CN)[C@@H](C)CC)C(=O)N[C@@H](C(C)C)C(=O)NCC(=O)N[C@@H](CCC(=O)O)C(=O)N1)C(=O)N[C@@H](CC(N)=O)C(=O)N[C@@H](CCC(=O)O)C(N)=O [Mag(i + 4)15(S23E), GIGKFLHSAKKFGKAXVGEXBNE] (H-GIGKFLHSAKKFGKA[S5]VGE[S5][Nle]NE-NH2; staple 16-20)	4.9
6.2	3.1	1.6	6.2	CCCC[C@H](NC(=O)[C@]1(C)CCCC=CCCC[C@](C)(NC(=O)[C@H](C)NC(=O)[C@H](CCCCN)NC(=O)CNC(=O)[C@H](Cc2ccccc2)NC(=O)[C@H](CCCCN)NC(=O)[C@H](CCCCN)NC(=O)[C@H](C)NC(=O)[C@H](CCCCN)NC(=O)[C@H](Cc2c[nH]cn2)NC(=O)[C@H](CC(C)C)NC(=O)[C@H](Cc2ccccc2)NC(=O)[C@H](CCCCN)NC(=O)CNC(=O)[C@@H](NC(=O)CN)[C@@H](C)CC)C(=O)N[C@@H](C(C)C)C(=O)NCC(=O)N[C@@H](CCC(=O)O)C(=O)N1)C(=O)N[C@@H](CC(N)=O)C(=O)N[C@@H](CO)C(N)=O [Mag(i + 4)15(S8K), GIGKFLHKAKKFGKAXVGEXBNS] (H-GIGKFLHKAKKFGKA[S5]VGE[S5][Nle]NS-NH2; staple 16-20)	3.4
